Results on three compounds are retold here after patent publication US20180104059A1, “Delivery of Therapy to Living Tissue” (President and Fellows of Harvard College, priority 2015, published 2018).

Series [1] in a line: Delivery of fluorescently tagged protein via thericardium port versus intraperitoneal, fluorescence at target site. In kind it is in vivo, rat. The settings on record: after three hours. The source says:
A bovine serum albumin solution tagged with a fluorescent molecule (Vivotag 800) was delivered via the port 18. […] The bioluminescence from the dose is shown for intraperitoneal delivery (at left) and for direct delivery via the thericardium 10 is shown in FIG. 28.

In series [2] the test system is canine model of myocardial infarction. The following applies: ONO1301 alone or in combination with a VRD; cited from earlier work.
For series [3] the following is noted: in vivo; cited from earlier work.

“bovine serum albumin: bovine serum albumin solution tagged with a fluorescent molecule (Vivotag 800), model protein”: the “protein at the target site (fluorescence)” value is “sustained concentration” in series [1] (delivered via the port) and “undetectable quantity” in series [1] (same amount injected intraperitoneally). In the case of `O=C(O)COc1cccc2c1CCC=C2CCO/N=C(\c1ccccc1)c1cccnc1` [ONO1301], in series [2], the “HGF, VEGF and SDF-1 in the myocardium” value is recorded as “upregulation”; the myocardial vascularization result is reported as “increase in myocardial vascularization”.

Consider `CC(C)NCC(O)COc1ccc(CC(N)=O)cc1` (centres unmarked) [atenolol], for which the “efficacy with intrapericardial delivery compared to IV administration” value in series [3] was “improved the efficacy”.
